Reference: publication PMC7600679, “Benzoxazole-Based Metal Complexes to Reverse Multidrug Resistance in Bacteria” (Antibiotics, 2020)
≈ marks a conversion by molar mass, not a printed value.

Columns and labels:
E. coli AG100 A [1] = test: Minimum inhibitory concentration (broth microdilution, CLSI); format: cell-based, Escherichia coli; conditions: 18 h
Description: Wild-type E. coli K-12 AG100 strain (argE3 thi-1 rpsL xyl mtl Δ(gal-uvrB) supE44) expressing the AcrAB TolC EP at its basal level and its AcrAB-TolC deleted mutant E. coli K-12 AG100 A strain. The strains were donated by Prof. Dr. Hiroshi Nikaido (Department of Molecular and Cell Biology and Chemistry, University of California, Berkeley, CA, USA).
(§1) The minimum inhibitory concentrations (MICs) of compounds were determined in 96-well plates based on the Clinical and Laboratory Standard Institute guidelines (CLSI guidelines). The compounds were diluted in 100 μL of MHB. Then, 10^−4 dilution of an overnight bacterial culture in 100 μL of medium were added to each well, with the exception of the medium control wells.

[2] = tested on: Chromobacterium violaceum 026; test: as above; format: cell-based; conditions: C. violaceum 026
Description: (§2) The following bacterial strains were applied in the QS tests: C. violaceum 026 as sensor strain and E. cloacae 31298 isolated from clinical wound (used as N-acyl-homoserine lactone (AHL) producer); this strain induced pigment production by C. violaceum and is a model strain to study QS interactions.
as §1

[3] = tested on: Enterobacter cloacae 31298; test: as above; format: cell-based; conditions: E. cloacae 31298
Description: as §2, §1

S. aureus MRSA 272123 = test: Resistance modulation (MIC reduction) assay with CIP and TET; format: cell-based, Staphylococcus aureus; conditions: for Reduction of the MIC value of CIP: compound at a quarter of the MIC; for CIP MIC in combination with compounds: compound at ¼ MIC, value is the MIC of ciprofloxacin
Description: (§3) The resistance modulation effects of compounds with ciprofloxacin (CIP) and tetracycline (TET) antibiotics were evaluated by the MIC reduction method on the Gram-negative E. coli AG100, AG100 A, and the Gram-positive S. aureus ATCC and MRSA strains.
(§4) The chemosensitizing activity of benzoxazole-type ligands and their metal complexes was determined based on the MIC values of the antibiotics in the presence of sub-inhibitory concentrations of the compounds (¼ MIC) in both Gram-negative and Gram-positive strains. The MICs were determined in strains by the two-fold broth microdilution method in 96-well plates, using serial dilutions of TET and CIP. The first four rows contained two-fold dilutions of antibiotics, and combinations of the TET and CIP and tested compounds were transferred into the last four rows. The 10^−4 dilution of an overnight bacterial culture in 50 μL of MHB was then measured to each well, except for the medium control wells. The plates were kept at 37 °C for 18 h. MIC values of antibiotics and their combination with tested compounds were detected by visual inspection.

E. coli AG100 [4] = test: as above; format: cell-based, Escherichia coli; conditions: compound at ¼ MIC, value is the MIC of ciprofloxacin
Description: as §3, §4

S. aureus 272123 (MRSA) = test: Real-time ethidium bromide accumulation (efflux pump inhibition); format: cell-based, Staphylococcus aureus; conditions: compounds at ¼ MIC (3 at 12.5 µM), VER at 25 µM, EB 1 μg/mL, minute 30
S. aureus ATCC 25923 = test: as above; format: cell-based, Staphylococcus aureus; conditions: compounds at ¼ MIC, EB 1 μg/mL, minute 30
E. coli AG100 [5] = test: Real-time ethidium bromide accumulation (efflux pump inhibition, AcrAB-TolC); format: cell-based, Escherichia coli; conditions: compounds at ¼ MIC, EB 1 μg/mL, minute 30
E. coli AG100 A [6] = test: Real-time ethidium bromide accumulation (efflux pump inhibition); format: cell-based, Escherichia coli; conditions: compounds at ¼ MIC, EB 1 μg/mL, minute 30
[7] = E. coli AG100 A (AcrAB-TolC deleted), visual inspection

Structure (SMILES)	MIC (E. coli AG100 A [1]; Escherichia coli, AG100A) [µM]	MIC ([2]; Chromobacterium violaceum) [µM]	MIC ([3]; Enterobacter cloacae) [µM]	Reduction of the MIC value of CIP (S. aureus MRSA 272123) [fold]	CIP MIC in combination with compounds (S. aureus MRSA 272123) [µM]	CIP MIC in combination with compounds (E. coli AG100 [4]) [µM]	Relative fluorescence index (RFI) (S. aureus 272123 (MRSA))	Relative fluorescence index (RFI) (S. aureus ATCC 25923)	Relative fluorescence index (RFI) (E. coli AG100 [5])	Relative fluorescence index (RFI) (E. coli AG100 A [6])	MIC (E. coli AG100 A [1]; [7]) [µM]	MIC [2] [µM]	MIC [3] [µM]
O=C(Cc1nc2ccccc2o1)C(F)F [Compound 3]	25 (≈ 5.28 µg/mL)	> 100	> 100	2	6.25	0.016	0.13	−0.01	−0.07	−0.03			
[O-]C(=Cc1nc2ccccc2o1)C(F)(F)Cl.[O-]C(=Cc1nc2ccccc2o1)C(F)(F)Cl.[Zn+2] [Compound 5]				2	6.25	0.016	−0.13	0.03	0.37	−0.19	12.5	>100	>100
[Fe+3].[O-]C(=Cc1nc2ccccc2o1)C(F)(F)F.[O-]C(=Cc1nc2ccccc2o1)C(F)(F)F.[O-]C(=Cc1nc2ccccc2o1)C(F)(F)F [Compound 12]				2	6.25	0.016	−0.02	−0.02	0.04	0.09	50	>100	>100
